Measured values published in publication PMC3914206.

Columns and labels:
Format in all cases: binding
panel of 442 kinases [1] = biological target: T1, panel of 442 kinases (Homo sapiens, UniProt O75582); details: Compound Concentration 10 µM
T1 construct: purchased KINOMEscan
Excerpt: (§1) We assessed the selectivity of members of this scaffold using the KINOMEscan methodology across a near comprehensive panel of 442 kinases [[18,27]].

panel of 442 kinases [2] = biological target: T2, panel of 442 kinases (Homo sapiens, UniProt Q16288); details: kinase TRKC; compound concentration 10 µM
T2 construct: purchased KINOMEscan
Excerpt: as §1

panel of 442 kinases [3] = biological target: T3, panel of 442 kinases (Homo sapiens, UniProt Q9H2G2); details: kinase SLK; compound concentration 10 µM
T3 construct: purchased KINOMEscan
Excerpt: as §1

panel of 442 kinases [4] = biological target: T4, panel of 442 kinases (Homo sapiens, UniProt P06239); details: Compound Concentration 10 µM
T4 construct: purchased KINOMEscan
Excerpt: as §1

T4 sequence (P06239 whole entry): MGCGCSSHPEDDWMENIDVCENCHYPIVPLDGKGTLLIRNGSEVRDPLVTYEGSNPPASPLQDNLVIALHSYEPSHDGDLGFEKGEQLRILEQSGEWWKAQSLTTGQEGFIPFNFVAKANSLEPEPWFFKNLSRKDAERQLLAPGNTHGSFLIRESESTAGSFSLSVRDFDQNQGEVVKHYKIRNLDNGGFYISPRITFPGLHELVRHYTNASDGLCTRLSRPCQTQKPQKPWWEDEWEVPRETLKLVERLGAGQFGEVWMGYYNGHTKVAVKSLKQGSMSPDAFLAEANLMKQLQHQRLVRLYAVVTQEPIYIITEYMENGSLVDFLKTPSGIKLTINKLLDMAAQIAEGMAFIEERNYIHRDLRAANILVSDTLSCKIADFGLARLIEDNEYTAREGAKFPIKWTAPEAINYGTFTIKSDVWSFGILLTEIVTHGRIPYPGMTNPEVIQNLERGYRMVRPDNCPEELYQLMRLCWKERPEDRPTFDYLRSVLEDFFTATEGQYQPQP
T1 sequence (O75582 whole entry): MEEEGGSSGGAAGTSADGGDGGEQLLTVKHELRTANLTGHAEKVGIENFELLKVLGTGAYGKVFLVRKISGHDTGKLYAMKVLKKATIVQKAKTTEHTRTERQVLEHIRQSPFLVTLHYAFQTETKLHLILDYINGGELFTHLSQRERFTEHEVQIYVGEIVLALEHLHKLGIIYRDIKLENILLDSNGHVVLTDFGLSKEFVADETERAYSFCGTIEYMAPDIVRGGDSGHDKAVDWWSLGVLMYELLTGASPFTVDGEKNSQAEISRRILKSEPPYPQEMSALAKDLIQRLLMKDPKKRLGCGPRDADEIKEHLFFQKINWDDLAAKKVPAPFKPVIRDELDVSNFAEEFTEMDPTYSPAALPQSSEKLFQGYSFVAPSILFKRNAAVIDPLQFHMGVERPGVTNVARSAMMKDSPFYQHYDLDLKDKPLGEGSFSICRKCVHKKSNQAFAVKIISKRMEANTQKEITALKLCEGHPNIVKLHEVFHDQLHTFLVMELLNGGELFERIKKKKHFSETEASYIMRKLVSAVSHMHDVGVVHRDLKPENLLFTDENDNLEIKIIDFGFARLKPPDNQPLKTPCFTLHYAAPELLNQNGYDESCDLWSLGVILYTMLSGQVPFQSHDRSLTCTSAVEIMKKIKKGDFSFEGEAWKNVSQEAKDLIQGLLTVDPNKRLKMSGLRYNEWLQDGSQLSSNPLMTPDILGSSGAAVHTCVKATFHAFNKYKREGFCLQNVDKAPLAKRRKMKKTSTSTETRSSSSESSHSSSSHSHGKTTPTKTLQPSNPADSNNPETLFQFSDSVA
T3 sequence (Q9H2G2 whole entry): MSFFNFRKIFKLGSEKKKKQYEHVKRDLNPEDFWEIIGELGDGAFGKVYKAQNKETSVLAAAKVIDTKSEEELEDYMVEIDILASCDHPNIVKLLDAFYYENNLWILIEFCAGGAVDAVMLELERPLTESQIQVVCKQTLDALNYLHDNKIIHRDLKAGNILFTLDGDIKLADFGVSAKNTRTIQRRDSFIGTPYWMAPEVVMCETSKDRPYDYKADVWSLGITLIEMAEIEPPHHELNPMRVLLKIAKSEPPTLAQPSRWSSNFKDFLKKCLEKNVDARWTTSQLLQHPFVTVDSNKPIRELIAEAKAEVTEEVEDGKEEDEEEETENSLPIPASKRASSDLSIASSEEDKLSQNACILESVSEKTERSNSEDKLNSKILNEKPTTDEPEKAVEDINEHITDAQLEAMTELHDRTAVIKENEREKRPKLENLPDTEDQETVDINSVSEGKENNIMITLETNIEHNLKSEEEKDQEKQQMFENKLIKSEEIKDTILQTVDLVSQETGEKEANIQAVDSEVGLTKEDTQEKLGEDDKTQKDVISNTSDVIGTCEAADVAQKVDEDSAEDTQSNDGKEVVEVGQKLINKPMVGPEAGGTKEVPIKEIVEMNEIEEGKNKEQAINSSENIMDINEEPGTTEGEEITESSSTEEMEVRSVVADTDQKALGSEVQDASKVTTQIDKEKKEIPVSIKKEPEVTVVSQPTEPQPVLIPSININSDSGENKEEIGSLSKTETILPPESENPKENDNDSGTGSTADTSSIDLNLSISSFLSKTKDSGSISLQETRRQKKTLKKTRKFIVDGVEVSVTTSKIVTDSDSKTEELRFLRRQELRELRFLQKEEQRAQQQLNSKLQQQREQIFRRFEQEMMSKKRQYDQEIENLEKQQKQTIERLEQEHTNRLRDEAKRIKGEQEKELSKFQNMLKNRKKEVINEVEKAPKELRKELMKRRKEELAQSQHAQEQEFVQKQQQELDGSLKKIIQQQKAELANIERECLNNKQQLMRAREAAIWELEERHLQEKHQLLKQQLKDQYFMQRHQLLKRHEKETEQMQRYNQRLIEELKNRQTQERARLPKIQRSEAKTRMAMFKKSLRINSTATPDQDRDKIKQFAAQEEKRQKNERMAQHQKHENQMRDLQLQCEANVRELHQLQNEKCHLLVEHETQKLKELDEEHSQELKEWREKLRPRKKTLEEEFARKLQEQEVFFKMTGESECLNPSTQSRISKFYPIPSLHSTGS
T2 sequence (Q16288 32-839): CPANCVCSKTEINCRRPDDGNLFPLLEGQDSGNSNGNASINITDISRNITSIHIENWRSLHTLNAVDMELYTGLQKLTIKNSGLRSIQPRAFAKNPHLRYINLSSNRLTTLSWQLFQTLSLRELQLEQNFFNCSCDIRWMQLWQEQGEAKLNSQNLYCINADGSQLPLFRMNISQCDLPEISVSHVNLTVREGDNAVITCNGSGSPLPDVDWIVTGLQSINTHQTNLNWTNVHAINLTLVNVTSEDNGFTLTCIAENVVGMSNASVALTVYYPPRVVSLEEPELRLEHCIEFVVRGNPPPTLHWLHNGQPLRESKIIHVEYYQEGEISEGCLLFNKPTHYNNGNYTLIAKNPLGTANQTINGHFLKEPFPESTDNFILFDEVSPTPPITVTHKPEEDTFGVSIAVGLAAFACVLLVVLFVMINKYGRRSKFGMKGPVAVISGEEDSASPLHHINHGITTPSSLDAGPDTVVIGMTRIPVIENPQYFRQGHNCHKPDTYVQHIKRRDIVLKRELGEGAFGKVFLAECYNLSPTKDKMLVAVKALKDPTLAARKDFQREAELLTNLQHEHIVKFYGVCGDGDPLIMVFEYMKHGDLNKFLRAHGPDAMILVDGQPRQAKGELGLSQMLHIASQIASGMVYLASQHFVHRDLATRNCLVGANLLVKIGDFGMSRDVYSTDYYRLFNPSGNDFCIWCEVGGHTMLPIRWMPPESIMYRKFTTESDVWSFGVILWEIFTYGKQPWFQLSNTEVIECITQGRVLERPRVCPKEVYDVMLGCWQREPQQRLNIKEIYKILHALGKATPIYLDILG

Compound: COc1cc(C(=O)N2CCC(N3CCN(C)CC3)CC2)ccc1Nc1ncc2c(n1)N(C)c1ccccc1C(=O)N2C [15 (LRRK2-IN-1)]
- KINOMEscan: RPS6KA5(Kin.Dom.1-N-terminal) (panel of 442 kinases [1]): 96
- KINOMEscan: RPS6KA5(Kin.Dom.2-C-terminal) (panel of 442 kinases [1]): 92
- % Ctrl, TRKC (panel of 442 kinases [2]): 100 % Ctrl
- % Ctrl, SLK (panel of 442 kinases [3]): 100 % Ctrl
- KINOMEscan: LCK (panel of 442 kinases [4]): 100

Compound: CCOc1cc(C(=O)N2CCC(N3CCN(C)CC3)CC2)ccc1Nc1ncc2c(n1)N(C1CCCC1)c1ccccc1C(=O)N2C [Compound 26]
- KINOMEscan: RPS6KA5(Kin.Dom.1-N-terminal) (panel of 442 kinases [1]): 100
- KINOMEscan: RPS6KA5(Kin.Dom.2-C-terminal) (panel of 442 kinases [1]): 86
- % Ctrl, TRKC (panel of 442 kinases [2]): 90 % Ctrl
- % Ctrl, SLK (panel of 442 kinases [3]): 100 % Ctrl
- KINOMEscan: LCK (panel of 442 kinases [4]): 100

Compound: COc1cc(C(=O)N2CCC(N3CCN(C)CC3)CC2)ccc1Nc1ncc2c(n1)N1CCc3cccc(c31)C(=O)N2C [Compound 24]
- KINOMEscan: RPS6KA5(Kin.Dom.2-C-terminal) (panel of 442 kinases [1]): 43
- % Ctrl, TRKC (panel of 442 kinases [2]): 100 % Ctrl
- % Ctrl, SLK (panel of 442 kinases [3]): 49 % Ctrl

Compound: COc1cc(C(=O)N2CCC(N3CCN(C)CC3)CC2)ccc1Nc1ncc2c(n1)N(C1CCCC1)c1ccccc1C(=O)N2C [Compound 25, 11-cyclopentyl-2-((2-methoxy-4-(4-(4-methylpiperazin-1-yl)piperidine-1-carbonyl)phenyl)amino)-5-methyl-5H-benzo[e]pyrimido[5,4-b][1,4]diazepin-6(11H)-one]
- KINOMEscan: RPS6KA5(Kin.Dom.1-N-terminal) (panel of 442 kinases [1]): 100
- KINOMEscan: RPS6KA5(Kin.Dom.2-C-terminal) (panel of 442 kinases [1]): 100
- % Ctrl, TRKC (panel of 442 kinases [2]): 100 % Ctrl
- % Ctrl, SLK (panel of 442 kinases [3]): 100 % Ctrl
- KINOMEscan: LCK (panel of 442 kinases [4]): 66
